This passage reports IC50 results from patent US20020142334A1, “Methods of detecting poly(ADP-ribose) polymerase enzymatic activity” (priority 2001, published 2002).

For assay [1], the target named is T1, PARP (Homo sapiens, UniProt P09874).
T1 construct: purchased R&D Systems, Inc. TA5334
Particulars: reported values, see footnote; read-out: IC50 cited in the Literature; cited from earlier work.

For assay [2], the target named is T2, human PARP-1 (Homo sapiens, UniProt P09874).
T2 construct: purchased Trevigen 4667-250-01
T2 sequence (P09874 whole entry): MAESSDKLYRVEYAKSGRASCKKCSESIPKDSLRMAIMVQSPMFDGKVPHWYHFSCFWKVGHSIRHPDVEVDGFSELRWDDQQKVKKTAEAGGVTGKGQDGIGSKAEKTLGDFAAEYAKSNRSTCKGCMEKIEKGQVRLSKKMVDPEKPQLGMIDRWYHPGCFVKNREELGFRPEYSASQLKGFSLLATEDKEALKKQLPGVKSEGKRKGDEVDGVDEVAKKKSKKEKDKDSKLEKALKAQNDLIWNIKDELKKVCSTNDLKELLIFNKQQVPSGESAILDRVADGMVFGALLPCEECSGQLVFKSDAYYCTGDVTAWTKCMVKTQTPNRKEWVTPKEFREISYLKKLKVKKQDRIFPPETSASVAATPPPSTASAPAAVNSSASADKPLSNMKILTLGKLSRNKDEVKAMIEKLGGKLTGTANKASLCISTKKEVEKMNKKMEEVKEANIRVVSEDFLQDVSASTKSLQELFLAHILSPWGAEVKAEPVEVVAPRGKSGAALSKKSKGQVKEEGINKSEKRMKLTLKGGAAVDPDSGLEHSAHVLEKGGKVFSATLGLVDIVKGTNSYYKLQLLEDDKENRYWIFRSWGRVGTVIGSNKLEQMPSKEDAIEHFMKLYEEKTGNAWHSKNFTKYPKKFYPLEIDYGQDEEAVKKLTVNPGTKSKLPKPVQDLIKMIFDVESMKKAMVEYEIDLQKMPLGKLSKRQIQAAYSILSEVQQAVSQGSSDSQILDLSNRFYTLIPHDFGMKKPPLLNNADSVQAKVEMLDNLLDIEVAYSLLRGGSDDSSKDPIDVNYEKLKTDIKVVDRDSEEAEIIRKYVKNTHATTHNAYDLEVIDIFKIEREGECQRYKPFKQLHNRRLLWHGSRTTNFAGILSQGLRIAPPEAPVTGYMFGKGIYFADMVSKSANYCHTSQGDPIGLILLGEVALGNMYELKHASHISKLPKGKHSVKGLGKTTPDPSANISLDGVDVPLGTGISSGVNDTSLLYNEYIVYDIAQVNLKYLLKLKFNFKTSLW
As to the kind of experiment: Biotin-Avidin PARP assay (biotinylated NAD auto-ribosylation, immobilized PARP). The format is biochemical. As to the method:
ELISA plates (96-well) were coated with recombinant human PARP-1 overnight at 4° C.
Prior to the activity assay, the plates were washed three times in PBS-T.
The control reactions were carried out in the absence of sheared DNA in order to determine background activity for the reaction(s). […] The optical density for each sample was measured at 410 nm.
The inhibitors were first dissolved in DMSO and then serially diluted in DMSO to create stock solutions which were added to the auto-ribosylation buffer to achieve the desired range of final concentrations of the inhibitors in the nanomolar to millimolar range.

Assay [3] addresses T1, PARP. As to the kind of experiment: commercially available [32P] NAD-based PARP assay (R&D Systems). Particulars: [32P]-NAD based kit. The format is biochemical. Here is the method: The present method was conducted in the presence of known PARP inhibitors of varying potencies, tested at a range of concentrations. The experiment was conducted to determine if the IC50 values generated by the assay of the present invention were in agreement with previously reported IC50 values for these compounds and IC50 values generated by a commercially available [^32P] NAD-based PARP assay (R&D Systems, Inc., Minneapolis, Minn., Cat#TA5334). [^32P]-NAD was obtained from Amersham Pharmacia Biotech, Piscataway, N.J.

Read-outs that look alike come from different tables or passages of the source.

T1 sequence (P09874 whole entry): as above

With `Cc1nc2c(O)cccc2c(=O)[nH]1` [Compound A, 8-hydroxy-2-methyl-quinazolin-4-[3H]-one], the half-inhibitory concentration (IC50) (commonly the concentration needed to halve the response being measured) was 400 nM in assay [1], 460 nM in assay [2] and 318 nM in assay [3].
For the compound `NC(=O)c1cccc2cccc(C(=O)O)c12` [Compound B, 8-carboximido-napthalene-1-carboxylic acid], the 50% inhibitory concentration (IC50) is 250 nM in assay [1]; 329 nM in assay [2] (PARP-1 coated on plates overnight at 4° C., 25 μM biotinylated NAD, 100 μM unlabelled NAD, sheared DNA, read-out: Biotin Avidin PARP (IC50)); 334 nM in assay [3].
